Measured values as given in the CheMixHub viscosity set.
Values joined by “and” are separate entries in the source; they are usually repeats but may differ in a detail not shown here. Equal entries are not always repeated.

Assay: xn = mol fraction of the nth substance listed

O=C1CCCN1 + COCCO
298.15 K, 101 kPa
Conditions	viscosity [mPa·s]
x1 = 0.0049	1.544
x1 = 0.0127	1.567
x2 = 0.0059	14.01
x2 = 0.0144	13.59
x2 = 0.0218	13.27
x2 = 0.0326	12.77
x2 = 0.0446	12.37
x2 = 0.0689	11.33
x2 = 0.0849	10.74
x2 = 0.1078	10.07
x2 = 0.127	9.467
x2 = 0.1824	8.072
x2 = 0.2392	6.994
x2 = 0.2918	6.075
x2 = 0.3249	5.599
x2 = 0.3711	5.006
x2 = 0.4202	4.585
x2 = 0.5242	3.631
x2 = 0.5773	3.264
x2 = 0.6342	2.895
x2 = 0.6686	2.717
x2 = 0.7286	2.446
x2 = 0.7755	2.248
x2 = 0.8174	2.089
x2 = 0.8558	1.966
x2 = 0.9003	1.819
x2 = 0.9214	1.756
x2 = 0.9381	1.703
x2 = 0.9524	1.669
x2 = 0.9729	1.604

CC=CC(=O)OCC + CCO
viscosity [mPa·s], 101 kPa
Conditions	x1 = 0.0991	x1 = 0.1985	x1 = 0.2994	x1 = 0.3961	x1 = 0.5006	x1 = 0.6	x1 = 0.6968	x1 = 0.7816	x1 = 0.8996
293.15 K	1.026	0.929	0.9257	0.9219	0.878	0.8293	0.8016	0.8351	0.8122
298.15 K	0.9334	0.8523	0.8465	0.8404	0.8061	0.7663	0.7402	0.7648	0.7535
303.15 K	0.8498	0.7812	0.7751	0.7739	0.7411	0.7061	0.6855	0.7052	0.7
313.15 K	0.7166	0.6615	0.6607	0.6588	0.6372	0.6091	0.5958	0.6134	0.6108
323.15 K	0.6156	0.5747	0.5702	0.5686	0.5537	0.5363	0.5284	0.5414	0.5401

O=C1CCCN1 + CC(O)CO
Conditions	viscosity [mPa·s]
298.15 K, 101.33 kPa, x1 = 0.06223	38.56
298.15 K, 101.33 kPa, x1 = 0.09322	36.35
298.15 K, 101.33 kPa, x1 = 0.1974	30.23
298.15 K, 101.33 kPa, x1 = 0.2925	26.21
298.15 K, 101.33 kPa, x1 = 0.3956	23.01
298.15 K, 101.33 kPa, x1 = 0.5612	19.49
298.15 K, 101.33 kPa, x1 = 0.5963	18.87
298.15 K, 101.33 kPa, x1 = 0.7003	17.36
298.15 K, 101.33 kPa, x1 = 0.7843	16.26
298.15 K, 101.33 kPa, x1 = 0.8992	14.8
298.15 K, 101.33 kPa, x1 = 0.9581	13.93
308.15 K, 101.33 kPa, x1 = 0.05382	23.04
308.15 K, 101.33 kPa, x1 = 0.1106	20.74
308.15 K, 101.33 kPa, x1 = 0.1986	18.2
308.15 K, 101.33 kPa, x1 = 0.3058	15.92
308.15 K, 101.33 kPa, x1 = 0.3989	14.45
308.15 K, 101.33 kPa, x1 = 0.512	12.98
308.15 K, 101.33 kPa, x1 = 0.5975	12.23
308.15 K, 101.33 kPa, x1 = 0.6998	11.39
308.15 K, 101.33 kPa, x1 = 0.8034	10.71
308.15 K, 101.33 kPa, x1 = 0.8984	9.939
308.15 K, 101.33 kPa, x1 = 0.957	9.465
313.15 K, 101 kPa, x1 = 0.0803	16.98
313.15 K, 101 kPa, x1 = 0.1596	15.07
313.15 K, 101 kPa, x1 = 0.2403	13.58
313.15 K, 101 kPa, x1 = 0.3201	12.41
313.15 K, 101 kPa, x1 = 0.4011	11.51
313.15 K, 101 kPa, x1 = 0.481	10.79
313.15 K, 101 kPa, x1 = 0.5617	10.17
313.15 K, 101 kPa, x1 = 0.6394	9.657
313.15 K, 101 kPa, x1 = 0.7192	9.2
313.15 K, 101 kPa, x1 = 0.7993	8.742
313.15 K, 101 kPa, x1 = 0.8723	8.338
313.15 K, 101 kPa, x1 = 0.9579	7.845
318.15 K, 101.33 kPa, x1 = 0.06032	14.2
318.15 K, 101.33 kPa, x1 = 0.09973	13.37
318.15 K, 101.33 kPa, x1 = 0.1931	11.82
318.15 K, 101.33 kPa, x1 = 0.3054	10.43
318.15 K, 101.33 kPa, x1 = 0.3986	9.613
318.15 K, 101.33 kPa, x1 = 0.5124	8.834
318.15 K, 101.33 kPa, x1 = 0.6012	8.369
318.15 K, 101.33 kPa, x1 = 0.6899	7.95
318.15 K, 101.33 kPa, x1 = 0.7926	7.488
318.15 K, 101.33 kPa, x1 = 0.9004	7.031
318.15 K, 101.33 kPa, x1 = 0.9614	6.774

Cc1cc(C)cc(C)c1 + Cc1ccccc1
viscosity [mPa·s]
Conditions	100 kPa	101.33 kPa
298.15 K, x2 = 0.5	0.5957	0.5957
298.24 K, x2 = 0.8	0.5709	0.5709
303.16 K, x2 = 0.5	–	0.5616
303.18 K, x2 = 0.8	–	0.5394
307.82 K, x2 = 0.8	–	0.5125
308.22 K, x2 = 0.5	–	0.5315
313.14 K, x2 = 0.5	0.505	0.505
313.26 K, x2 = 0.8	0.4837	0.4837
317.67 K, x2 = 0.8	–	0.4619
318.09 K, x2 = 0.5	–	0.4792
322.66 K, x2 = 0.8	–	0.4389
322.74 K, x2 = 0.5	–	0.4583

O=C1CCCN1 + OCCO
101.33 kPa
Conditions	viscosity [mPa·s]
298.15 K, x1 = 0.04482	16.51
298.15 K, x1 = 0.1032	16.1
298.15 K, x1 = 0.2107	15.53
298.15 K, x1 = 0.3059	15.19
298.15 K, x1 = 0.3998	14.98
298.15 K, x1 = 0.4988	14.85
298.15 K, x1 = 0.6042	14.73
298.15 K, x1 = 0.6866	14.62
298.15 K, x1 = 0.7865	14.39
298.15 K, x1 = 0.9015	13.95
298.15 K, x1 = 0.9371	13.76
308.15 K, x1 = 0.05148	11.22
308.15 K, x1 = 0.2079	10.64
308.15 K, x1 = 0.3048	10.4
308.15 K, x1 = 0.3932	10.24
308.15 K, x1 = 0.4992	10.12
308.15 K, x1 = 0.9078	9.505
308.15 K, x1 = 0.952	9.341
318.15 K, x1 = 0.04423	7.91
318.15 K, x1 = 0.1016	7.746
318.15 K, x1 = 0.2104	7.505
318.15 K, x1 = 0.318	7.342
318.15 K, x1 = 0.3931	7.265
318.15 K, x1 = 0.4945	7.195
318.15 K, x1 = 0.592	7.15
318.15 K, x1 = 0.7035	7.089
318.15 K, x1 = 0.7949	7.002
318.15 K, x1 = 0.8888	6.855
318.15 K, x1 = 0.9417	6.74

O[C@H]1[C@H](O)[C@@H](O)[C@H](O)[C@@H](O)[C@H]1O + O
viscosity
Conditions	x1 = 0.0018	x1 = 0.002	x1 = 0.00359	x1 = 0.004	x1 = 0.005	x1 = 0.00538	x1 = 0.00715	x1 = 0.00893
293.15 K, 101 kPa	1.051 mPa·s	–	1.102 mPa·s	–	–	1.154 mPa·s	1.23 mPa·s	1.281 mPa·s
293.15 K, 101.3 kPa	–	1.035 mPa·s	–	1.086 mPa·s	1.138 mPa·s	–	–	–
298.15 K, 101.3 kPa	–	0.945 mPa·s	–	0.986 mPa·s	1.006 mPa·s	–	–	–
303.15 K, 101 kPa	0.836 mPa·s	–	0.875 mPa·s	–	–	0.911 mPa·s	0.97 mPa·s	1.001 mPa·s and 1.011 mPa·s
303.15 K, 101.3 kPa	–	0.821 mPa·s	–	0.861 mPa·s	0.899 mPa·s	–	–	–
313.15 K, 101 kPa	0.685 mPa·s	–	0.728 mPa·s	–	–	0.742 mPa·s	0.789 mPa·s	0.82 mPa·s
323.15 K, 101 kPa	0.577 mPa·s	–	0.601 mPa·s	–	–	0.618 mPa·s	0.658 mPa·s	0.684 mPa·s

O=S=O + Cc1cc(C)cc(C)c1
298.15 K, 101 kPa
Conditions	viscosity [mPa·s]
x1 = 0.137	0.6381
x1 = 0.223	0.6062
x1 = 0.255	0.5926

[Cl-].[Cl-].[Cl-].[Cl-].[Sn+4] + O=C(O)C(Cl)(Cl)Cl
323.15 K, 101 kPa
Conditions	viscosity [mPa·s]
x1 = 0.1911	2.66
x1 = 0.4139	1.448
x1 = 0.667	0.959

[Cl-].[Cl-].[Cl-].[Cl-].[Sn+4] + O=C(O)CCl
323.15 K, 101 kPa
Conditions	viscosity [mPa·s]
x1 = 0.025	3.305
x1 = 0.0506	3.944
x1 = 0.0951	4.193
x1 = 0.0957	4.1
x1 = 0.1491	4.17
x1 = 0.2041	3.921
x1 = 0.2511	2.927
x1 = 0.3456	2.003
x1 = 0.4928	1.41
x1 = 0.6663	0.948
x1 = 0.7708	0.836

Cc1cc(C)cc(C)c1 + CCO
293.15 K, 101 kPa
Conditions	viscosity [mPa·s]
x2 = 0.2	0.718
x2 = 0.4	0.764
x2 = 0.6	0.854
x2 = 0.8	0.983

Cc1cc(C)cc(C)c1 + C1CCOC1
298.15 K, 101 kPa
Conditions	viscosity [mPa·s]
x2 = 0.0735	0.5973
x2 = 0.1513	0.5921
x2 = 0.2274	0.5863
x2 = 0.2986	0.5793
x2 = 0.3672	0.5728
x2 = 0.4305	0.5659
x2 = 0.4912	0.5568
x2 = 0.6055	0.5353
x2 = 0.6784	0.5237
x2 = 0.7516	0.512
x2 = 0.828	0.4999
x2 = 0.879	0.4857
x2 = 0.9412	0.4724

CCCCCCCCCCCCCCC + CCCCCCCCCCO
100 kPa, x1 = 0.2565
Conditions	viscosity [mPa·s]
298.2 K	6.68
308.2 K	4.73
318.2 K	3.47
